Test results: BindingDB's records for doi:10.1016/j.bmc.2017.06.049 (Federal University of Alagoas, 2017)
pEC50: −log10 of the molar value.

Test: Inhibition of Chikungunya virus nsP2 protease infected in African green monkey Vero cells assessed as inhibition of viral-induced cytopathic effect by titration assay

Row | SMILES | pEC50
1 | CCOc1ccc(/C=N/NC(=O)C2CC2c2ccc(C(C)(C)C)cc2)cc1OCC (configuration not stated) | 5.30
2 | CCOc1ccc(/C=N/NC(=O)/C=C/Cc2ccc(C(C)(C)C)cc2)cc1OCC | 5.49
